Results on eight compounds are retold here after patent US11518747B2, “Solid forms of an N-terminal domain androgen receptor inhibitor and uses thereof” (ESSA Pharma, Inc., priority 2020, dated 2022).

Broadly, the IC50 is the concentration that gives 50% inhibition. Broadly, the solubility is how much of the substance goes into solution per volume.

SMILES strings stand for the structures. Values after ≈ are worked out from the molar mass of the structure shown.

Data set [1] has as its system Androgen-induced PSA-luciferase activity. The experiment in a line: Androgen-induced PSA (6.1 kb)-luciferase reporter assay in transiently transfected LNCaP cells. The data set is classed as cell-based. The following applies: Homo sapiens, R1881 1 nM, 24 h. On the procedure: To determine the IC50, treatments were normalized to the maximum activity with androgen-induction (in the absence of test compounds, vehicle only) (Table 12).
Luciferase Assay: Lysates were thawed on ice then collected into V-bottom 96-well tissue culture plates. Lysates were centrifuged at 4° C. for 5 minutes at 4000 rpm. To measure luminescence of LNCaP cell lysates the Firefly Luciferase Assay System (Promega) was employed, according to manufacturer's protocol.
Comparisons between treatment and control groups were compared using Two-Way ANOVA with post-hoc Dunnett's and Tukey's tests. Differences were considered statistically significant at P values less than 0.05. Densitometric quantification of relative AR levels was determined by Image.
(A reporter such as luciferase makes a cellular process visible.)

Data set [2] is described as follows: Physical stability of solid forms (drying, storage, slurry; XRPD). The data set is classed as physicochemical. The following applies: for XRPD result after stirring: RT, 4 d. On the procedure:
Based on experimental conditions to generate Material B and its drying studies, without being bound to any theory, Material B could be a solvated material which can convert to Material C upon drying.
In order to evaluate the relative stability between Form A and Material C, a competitive slurry was performed. About equal amounts (by mass) of Material C (mixture w/some Form A) and Form A were added to acetone so that solids persisted and were stirred at room temperature for 9 days. Solids were isolated by centrifugation using Spin-X centrifuge tubes equipped with a 0.45 μm nylon filter. Beige solids were observed. […] Material C could be an anhydrous material.
Further analyses including ^1H NMR and TGA were also collected on this amorphous sample (Table 10). The ^1H NMR spectrum was consistent with the chemical structure of Compound I and contains trace amount of DCM. By TGA (FIG. 9), about 1.0 wt % loss is observed from 45-200° C., which is likely due to the residual DCM and moisture in the material. The dramatic change in the slope of the TGA thermogram starting at 280° C. (onset) is likely associated with the decomposition of the material. […] A repeated rotary evaporation attempt from DCM solution generated disordered Compound I Form A (FIG. 7, second spectrum from bottom) after the sample was secondary dried at ambient temperature under vacuum for 3 days, which provides further evidence that amorphous Compound I is not physically stable.
Crystallization studies were performed on this disordered material (Table 10) and solids were stirred in acetone and H2O for 4 days at ambient conditions. Both experiments generated crystalline Form A (FIG. 10, bottom two spectra).

Data set [3] can be described thus: Dynamic vapor sorption (DVS) analysis. The data set is classed as physicochemical. Also noted: Hysteresis: unit not given here. On the procedure:
In one embodiment, the crystalline forms are characterized by Dynamic Vapor Sorption (DVS). The DVS profile is typically expressed by a diagram plotting the sample relative humidity (RH) versus the change in mass (%). The DVS profile provides information on hygroscopicity of the crystalline form at different RH conditions.
DVS (dynamic vapor sorption) analysis was carried out on Form A (Table 2, FIG. 3).

Data set [4] is described as follows: Amorphous solubility by slow addition from organic stock into aqueous media (UV/Vis scattering, DLS). The data set is classed as physicochemical. The following applies: for solubility: kinetic from dmso stock. The text has this: Solubility: Generally, the solubility of an amorphous form is higher than that of the corresponding crystal form, due to the lack of crystalline lattice forces in the amorphous state. Solubility of the amorphous form of Compound I was studied by slow addition of the amorphous form from an organic stock solution into the pH 6.5 phosphate-buffered saline (PBS) solution or 0.5% wt simulated intestinal fluid (SIF) in pH 6.5 PBS. When the amorphous solubility is reached, a drug-rich phase forms which typically scatters light (e.g., liquid-liquid phase separation or LLPS), which can be detected by scattering of UV/Visible light and/or by dynamic light scattering (DLS).
No scattering event prior to crystallization was observed.

The nature of data set [5]: Approximate solubility by solvent aliquot addition, visual inspection. The following applies: organic solvent or mixture, thermodynamic from solid. The data set is classed as physicochemical. The protocol: The approximate solubility of Compound I in various organic solvents was determined by adding solvent aliquots to weighed samples Compound I. Weighed samples of Compound I were treated with aliquots of the test solvents or solvent mixtures at ambient temperature. Complete dissolution of the test material was determined by visual inspection. Solubility was estimated based on the total solvent volume used to provide complete dissolution. The actual solubility may be greater than the value calculated because of the use of solvent aliquots that were too large or due to a slow rate of dissolution. If complete dissolution was not achieved during the experiment, the solubility is expressed as “less than” (<). If complete dissolution was achieved by only one aliquot addition, the value is reported as “larger than” (>).

Data set [6] in a line: Equilibrium solubility acquired at 24 hours. The format is physicochemical. The following applies: organic solvent or mixture, thermodynamic from solid.
[7] abbreviates: target RH 95.0 %, sample RH 96.0 %.

In turn, `CC(O)(CS(=O)(=O)c1ccc(F)cc1)C(=O)Nc1ccc(C#N)c(C(F)(F)F)c1` (stereo not drawn) [Bicalutamide] had a 50% inhibitory concentration (IC50) in data set [1] of 0.306 µM.

Take `CC(C)(c1ccc(OCc2ccnc(NS(C)(=O)=O)n2)cc1)c1cc(Cl)c(OCCCl)c(C#N)c1` [Form A, N-{4-[(4-{2-[3-chloro-4-(2-chloroethoxy)-5-cyanophenyl]propan-2-yl}phenoxy)methyl]pyrimidin-2-yl}methanesulfonamide]: in data set [2] (Material C (with some Form A) and Form A in acetone, room temperature, 9 days), the “Relative stability, competitive slurry” value is “more stable than Material C”. In addition, the “Solids recovered after DVS analysis, by XRPD” value in data set [3] (after DVS cycle) was “consistent with Form A”. For the same compound, in data set [3] (from 5% to 95% RH), the “Total weight gain during sorption” value amounted to 5.474%. Moreover, the “Weight gain during sorption” value worked out at 1.978 wt % in data set [3] (from 55% to 85% RH) and 3.106 wt % in data set [3] (from 85% RH to 95% RH). In addition, the “Weight loss during desorption” value in data set [3] (from 95% RH to 5% RH) turned out to be 5.472%. Besides, the “Sorp Mass Change” value was 0.000% in data set [3] (target RH 5.0 %, sample RH 4.9 %); 0.055% in data set [3] (target RH 15.0 %, sample RH 15.4 %); 0.111% in data set [3] (target RH 25.0 %, sample RH 24.9 %); 0.242% in data set [3] (target RH 45.0 %, sample RH 44.8 %); 0.390% in data set [3] (target RH 55.0 %, sample RH 54.5 %); 0.906% in data set [3] (target RH 65.0 %, sample RH […]). Besides, the “Sorp Mass Change” value in data set [3] (target RH 75.0 %, sample RH 74.5 %) was found to be 1.567%; in data set [3] (target RH 85.0 %, sample RH 84.7 %), 2.368%; in data set [3] (setting [7]), 5.474%; in data set [3] (target RH […], sample RH 34.5 %), 0.169%. The “Desorp Mass Change” value is 0.002% in data set [3] (target RH 5.0 %, sample RH 5.4 %); 0.060% in data set [3] (target RH 15.0 %, sample RH 16.1 %); 0.146% in data set [3] (target RH 25.0 %, sample RH 25.6 %); 0.716% in data set [3] (target RH 45.0 %, sample RH 45.6 %); 1.040% in data set [3] (target RH 55.0 %, sample RH 55.5 %); 1.438% in data set [3] (target RH 65.0 %, sample RH 65.6 %). In addition, the “Desorp Mass Change” value turned out to be 1.931% in data set [3] (target RH 75.0 %, sample RH 75.5 %); 2.072% in data set [3] (target RH 85.0 %, sample RH 85.8 %); 5.474% in data set [3] (setting [7]); 0.277% in data set [3] (target RH […], sample RH 35.3 %). The Hysteresis was determined as 0.013 in data set [3] (target RH 15.0 %); 0.036 in data set [3] (target RH 25.0 %); 0.474 in data set [3] (target RH 45.0 %); 0.650 in data set [3] (target RH 55.0 %); 0.452 in data set [3] (target RH 65.0 %); 0.364 in data set [3] (target RH 75.0 %). The Hysteresis is given as 0.604 in data set [3] (target RH 85.0 %) and 0.108 in data set [3] (target RH […]). The Hygroscopicity entry is “low hygroscopicity” in data set [3] (within 5%-55% RH), “limited hygroscopicity” in data set [3] (within 55%-85% RH) and “significant hygroscopicity” in data set [3] (within 85%-95% RH).

With `CC(C)(c1ccc(OCc2ccnc(NS(C)(=O)=O)n2)cc1)c1cc(Cl)c(OCCCl)c(C#N)c1` [Material B], the Stability upon drying entry in data set [2] is “unstable upon drying”. Further, the “XRPD result after drying” value in data set [2] (65-66° C., vacuum, 5 d) was “mixture of Form A and Material C”; in data set [2] (RT (ambient), on filter paper, 3 d), “disordered Material C”.

Regarding `CC(C)(c1ccc(OCc2ccnc(NS(C)(=O)=O)n2)cc1)c1cc(Cl)c(OCCCl)c(C#N)c1` [Disordered], the “XRPD result after stirring” value in data set [2] (H2O) and in data set [2] (acetone) was “Form A” throughout.

As to `CC(C)(c1ccc(OCc2ccnc(NS(C)(=O)=O)n2)cc1)c1cc(Cl)c(OCCCl)c(C#N)c1` [amorphous form of Compound I], the “XRPD result after storage” value in data set [2] (ambient (RT), desiccator, about 10 days) is on record as “disordered Form A”. Further, the Physical stability entry in data set [2] (ambient temperature) is “physically not stable”. In addition, the solubility is over 25 µg/mL in data set [4] (0.5% wt simulated intestinal fluid in PBS, fassgf or other biorelevant, 0.5% SIF (pH 6.5)) and over 2.5 µg/mL in data set [4] (phosphate-buffered saline, aqueous buffer, pH 6.5 PBS). Besides, the “Amorphous solubility relative to crystalline solubility” value in data set [4] (simulated intestinal media) is on record as “at least 20 ×”.

`CC(C)(c1ccc(OCc2ccnc(NS(C)(=O)=O)n2)cc1)c1cc(Cl)c(OCCCl)c(C#N)c1` [Material D]: the “XRPD result after drying” value in data set [2] (50-52° C., vacuum, 3 d) is listed as “desolvate into Form A”.

Take `CC(C)(c1ccc(OCc2ccnc(NS(C)(=O)=O)n2)cc1)c1cc(Cl)c(OCCCl)c(C#N)c1` [Compound I, N-{4-[(4-{2-[3-chloro-4-(2-chloroethoxy)-5-cyanophenyl]propan-2-yl}phenoxy)methyl]pyrimidin-2-yl}methanesulfonamide]: the solubility was over 107000 µg/mL in data set [5] (dioxane (printed 'dioxant'), dioxant, ambient temperature, read-out: Solubility); 20000 µg/mL (≈ 37.4 mM) in data set [5] (DCM, ambient temperature, read-out: Solubility); over 79000 µg/mL in data set [5] (DMA, ambient temperature, read-out: Solubility); under 2000 µg/mL in data set [5] (Et2O, ambient temperature, read-out: Solubility); 6000 µg/mL (≈ 11.2 mM) in data set [5] (MEK, ambient temperature, read-out: Solubility); under 1000 µg/mL in data set [5] (MTBE, ambient temperature, read-out: Solubility). Further, the solubility in data set [5] (NMP, ambient temperature, read-out: Solubility) is over 117000 µg/mL; in data set [5] (THF, ambient temperature, read-out: Solubility), 54000 µg/mL (≈ 101 mM); in data set [5] (iPrOAc, ambient temperature, read-out: Solubility) it was under 1000 µg/mL; in data set [5] (p-dioxane, from observations on samples at much larger scales, read-out: Approximate solubility), 35000 to 103000 µg/mL (≈ 65.4 to 192 mM); in data set [5] (toluene, ambient temperature, read-out: Solubility) it was 1000 µg/mL (≈ 1.87 mM). Further, the Crystalline solubility result in data set [4] is given as “very low”. In addition, the solubility at 24 h was 2040 µg/mL (≈ 3.81 mM) in data set [6] (ACN); over 12000 µg/mL in data set [6] (DMSO); 1970 µg/mL (≈ 3.68 mM) in data set [6] (EtOAc); 170 µg/mL (≈ 0.317 mM) in data set [6] (EtOH); 210 µg/mL (≈ 0.392 mM) in data set [6] (MeOH); 5300 µg/mL (≈ 9.9 mM) in data set [6] (acetone). Moreover, 0.535 µM corresponded to half-maximal inhibition in data set [1] (IC50).

`CC(C)(c1ccc(OC[C@H](O)CNS(C)(=O)=O)cc1)c1cc(Cl)c(OC[C@H](O)CCl)c(Cl)c1` [Reference Compound X] came in with a 50% inhibitory concentration (IC50) in data set [1] of 1.05 µM.
